# Measured values published in patent US12208163B2, “Nanostructured lipid gel, method for preparation and use” (CONSEJO SUPERIOR DE INVESTIGACIONES CIENTÍFICAS, priority 2018, dated 2025).
# Experiments:
# [1] = system: chorioallantoic membrane of a chicken egg; test: Eye irritation assay (HET-CAM test); settings: for OII (Ocular Irritation Index): calculated from H, V and C times; for Classification: interpretation of OII by Table 2; for Clotting time / Haemorrhage time / Vasoconstriction time: time when change appears, observed for 5 minutes
# Source text: With the aim of proposing potential uses of the gel in ocular applications, the possible eye irritation of this material was studied by means of a HET-CAM test. The gel formed from HSPC and OA with a molar ratio of 3:1 and a total lipid concentration of 5% was directly applied to the chorioallantoic membrane of a chicken egg due to its similarity to the human cornea. The appearance of vascular lesion or clotting in response to a compound is the basis for using this technique as an indicator of the probability that a substance may harm the mucous membranes, especially the cornea of the human eye, in vitro. In order to execute the method, the egg shell is carefully removed, moistening the membrane with a NaCl solution at 37° C. Next, the NaCl is removed and the white membrane is removed without harming any blood vessel. Next, the gel sample is applied and the appearance of haemorrhage (H), vasoconstriction (V) and/or clotting (C) can be observed for 5 minutes. Lastly, the Ocular Irritation Index (OII) is estimated using the following formula: [formula] H, V and C are the time in seconds when this change appears. If there is no alteration, they are equal to 300. The result obtained from the formula can be interpreted on the basis of Table 2: [table]
# [2] = in vitro cutaneous permeation assay on pig skin, fluorescence microscopy; assay type: in vitro ADME
# Experimental: In order to evaluate the potential of these gels as cutaneous application systems, an in vitro permeation assay was conducted on pig skin and observations were made using fluorescence microscopy. Two gels were formed which were applied to the skin surface. One of them was formed by incorporating a red fluorescent probe (Rhodamine B) in order to observe in which areas of the skin the gel-forming phospholipids are retained. In the other gel, a fluorescent green probe (fluorescein) was added in the aqueous phase with the aim of simulating a possible water-soluble active ingredient incorporated to the gel. The gel was gently applied to the skin and left to permeate overnight at 37° C. in a humid environment. Next, the skin was cut into sections and the cells marked in blue in order to distinguish the different skin layers.
SMILES,OII (Ocular Irritation Index) [1],Classification [1],Clotting time [1],Haemorrhage time [1],Vasoconstriction time [1],"skin permeation of fluorescein from aqueous solution ([2]; control, aqueous solution with fluorescein without incorporating the gel)","skin permeation of fluorescein dissolved in the aqueous phase of the gel ([2]; fluorescein in gel, overnight at 37° C., FIG. 6)"
"CCCCCCCCCCCCOS(=O)(=O)[O-].[Na+] [1% SDS, SDS]",3.23,Mildly,0 s,110 s,0 s,–,–
[Na+].[OH-] [NaOH],17.79,Irritating (9-21),20 s,28 s,13 s,–,–
O=C1OC2(c3ccc(O)cc3Oc3cc(O)ccc32)c2ccccc21 [fluorescein],–,–,–,–,–,only slightly incorporated in the stratum corneum,"capable of permeating the skin, covering the entire stratum corneum and epidermis"
